Measurements as given in ChEMBL document CHEMBL3734667 (Bioorg Med Chem, 2015).
pEC50: −log10 of the molar value.

How the values were obtained:
[1] = Cytotoxicity against MDBK cells assessed as cell viability after 48 to 96 hrs by MTT assay; format: cell-based, Bos taurus; conditions: cattle
[2] = Cytotoxicity against BHK cells assessed as cell viability after 48 to 96 hrs by MTT assay; format: cell-based, Mesocricetus auratus; conditions: hamster
[3] = tested on: Bovine viral diarrhea virus 1; experiment: Antiviral activity against BVDV infected in MDBK cells assessed as inhibition of virus-induced cytopathogenicity after 3 to 4 days by MTT assay; format: functional, organism-based; conditions: Bovine viral diarrhea virus isolates and strains
[4] = tested on: Mammalian orthoreovirus 1; experiment: Antiviral activity against Reo-1 virus infected in BHK-21 cells assessed as inhibition of virus-induced cytopathogenicity after 3 to 4 days by MTT assay; format: functional, cell-based; conditions: Mammalian orthoreovirus 1, BHK-21
Coxsackievirus B5 = experiment: Antiviral activity against human CVB5 infected in african green monkey Vero76 cells assessed as inhibition of virus-induced cytopathogenicity after 3 days by plaque reduction assay; format: functional, organism-based; conditions: Enterovirus B, Vero 76, 72 h
Human orthopneumovirus = experiment: Antiviral activity against human RSV infected in african green monkey Vero76 cells assessed as inhibition of virus-induced cytopathogenicity after 5 days by plaque reduction assay; format: functional, organism-based; conditions: human respiratory syncytial virus, Vero 76, 120 h
Poliovirus 1 = experiment: Antiviral activity against Human poliovirus 1 Sabin infected in african green monkey Vero76 cells assessed as inhibition of virus-induced cytopathogenicity by plaque reduction assay; format: functional, organism-based; conditions: Enterovirus C, Vero 76
[5] = Selectivity index, ratio of CC50 for BHK-21 cells to EC50 for YFV; design: species or system Yellow fever virus
[6] = Selectivity index, ratio of CC50 for african green monkey Vero76 cells to EC50 for human RSV; design: species or system human respiratory syncytial virus, Vero 76
Human alphaherpesvirus 1 = experiment: Antiviral activity against HSV1; format: functional, organism-based
[7] = tested on: Vesicular stomatitis virus; experiment: Antiviral activity against VSV; format: functional, organism-based
Vaccinia virus = experiment: Antiviral activity against Vaccinia virus; format: functional, organism-based; conditions: Orthopoxvirus vaccinia
[8] = Cytotoxicity against human MT4 cells assessed as cell viability after 96 hrs by MTT assay; format: cell-based
[9] = Cytotoxicity against african green monkey Vero 76 cells assessed as cell viability after 48 to 96 hrs by crystal violet staining method; format: cell-based; conditions: chlorocebus sabaeus
Yellow fever virus = experiment: Antiviral activity against YFV infected in BHK-21 cells assessed as inhibition of virus-induced cytopathogenicity after 3 to 4 days by MTT assay; format: functional, organism-based
[10] = Selectivity index, ratio of CC50 for african green monkey Vero76 cells to EC50 for human CVB5; design: species or system Coxsackievirus B5, Vero 76
[11] = tested on: Human immunodeficiency virus 1; experiment: Antiviral activity against HIV-1 infected in MT4 cells assessed as inhibition of virus-induced cytopathogenicity after 4 days by MTT assay; format: functional, organism-based; conditions: Human immunodeficiency virus 1, MT4, 96 h
[12] = Selectivity index, ratio of CC50 for MDBK cells to EC50 for BVDV; design: species or system Bovine viral diarrhea virus 1

| Compound | CC50 [1] [µM] | CC50 [2] [µM] | pEC50 [3] | pEC50 [4] | pEC50 (Coxsackievirus B5) | pEC50 (Human orthopneumovirus) | pEC50 (Poliovirus 1) | Ratio CC50/EC50 [5] | Ratio CC50/EC50 [6] | pEC50 (Human alphaherpesvirus 1) | pEC50 [7] | pEC50 (Vaccinia virus) | CC50 at 96 h [8] [µM] | CC50 [9] [µM] | pEC50 (Yellow fever virus) | Ratio CC50/EC50 [10] | pEC50 [11] | Ratio CC50/EC50 [12] |
| --- | --- | --- | --- | --- | --- | --- | --- | --- | --- | --- | --- | --- | --- | --- | --- | --- | --- | --- |
| O=c1cnn([C@@H]2O[C@H](CO)[C@@H](O)[C@H]2O)c(=O)[nH]1 [6-AZAURIDINE] | > 100 | > 100 | < 4.00 | < 4.00 | < 4.00 | 5.92 | < 4.00 | >3.8 | 16.7 | < 4.00 | < 4.00 | 4.96 |  |  |  |  |  |  |
| CN(C)c1cccc(C(=O)OCCCn2nc3ccccc3n2)c1 | > 100 | > 100 | < 4.00 |  | 4.14 | < 4.00 |  |  |  |  | < 4.00 | < 4.00 | > 100 | > 100 | < 4.00 | >1.37 | < 4.00 |  |
| Nc1ccc(-n2nc3ccccc3n2)cc1 | 100 | 100 | 4.46 | 4.05 | < 4.00 | < 4.00 | < 4.00 | 1.33 |  |  | < 4.00 | < 4.00 | ≥ 100 | > 100 | 4.12 |  | < 4.00 | 2.86 |
| COc1ccccc1N1CCN(CCCOc2ccc(-n3nc4ccc(C(F)(F)F)cc4n3)cc2)CC1 | > 100 | > 100 | < 4.00 | < 4.00 | 4.28 | < 4.00 | < 4.00 |  |  |  | < 4.00 | < 4.00 | 100 | 100 | < 4.00 | 1.89 | < 4.00 |  |
| CC(C)(Oc1ccc(-n2nc3ccccc3n2)cc1)C(=O)O | > 100 | > 100 | < 4.00 |  | < 4.00 | 4.10 | < 4.00 |  | 1.25 |  | < 4.00 | < 4.00 | > 100 | ≥ 100 | < 4.00 |  | < 4.00 |  |
| COc1ccc2nn(-c3ccc(OCCCC(C)(C)C(=O)O)cc3)nc2c1 | > 100 | 50 | 4.36 |  | 5.70 | < 4.00 | < 4.00 |  |  |  | < 4.00 | < 4.00 | 28 | 20 | < 4.00 | 10 | < 4.00 | 2.27 |
| [O-][n+]1c2cc(C(F)(F)F)ccc2nn1-c1ccc(O)cc1 | 72 | > 100 | < 4.00 | < 4.00 | 4.12 | 4.40 | < 4.00 |  | >2.5 |  | < 4.00 | < 4.00 | > 100 | > 100 | < 4.00 | >1.33 | < 4.00 |  |
| NC(=O)c1ncn([C@@H]2O[C@H](CO)[C@@H](O)[C@H]2O)n1 [RIBAVIRIN] | > 100 | > 100 |  | < 4.00 | < 4.00 | 5.15 | < 4.00 |  | >14.3 | < 4.00 | < 4.00 | < 4.00 |  | > 100 | < 4.00 |  |  |  |
| Cc1ccc2nn(-c3ccc(OC(C)(C)C(=O)O)cc3)nc2c1 | > 100 | > 100 | 4.05 |  | < 4.00 | 4.66 | < 4.00 |  | 4.32 |  | < 4.00 | < 4.00 | > 100 | 95 | < 4.00 |  | < 4.00 | >1.11 |
